This is an account of results in paper PMC11945486, “TAS1R2/TAS1R3 Single-Nucleotide Polymorphisms Affect Sweet Taste Receptor Activation by Sweeteners: The SWEET Project” (Nutrients, 2025).

The assay concerns the target T1, human TAS1R2-WT/TAS1R3-R813K (Homo sapiens, UniProt Q7RTX0+Q8TE23, R813K).
T1 construct: expressed in transfected cells; host or cells: HEK293T stably expressing Gα16gust44
T1 sequence (Q8TE23 20-839): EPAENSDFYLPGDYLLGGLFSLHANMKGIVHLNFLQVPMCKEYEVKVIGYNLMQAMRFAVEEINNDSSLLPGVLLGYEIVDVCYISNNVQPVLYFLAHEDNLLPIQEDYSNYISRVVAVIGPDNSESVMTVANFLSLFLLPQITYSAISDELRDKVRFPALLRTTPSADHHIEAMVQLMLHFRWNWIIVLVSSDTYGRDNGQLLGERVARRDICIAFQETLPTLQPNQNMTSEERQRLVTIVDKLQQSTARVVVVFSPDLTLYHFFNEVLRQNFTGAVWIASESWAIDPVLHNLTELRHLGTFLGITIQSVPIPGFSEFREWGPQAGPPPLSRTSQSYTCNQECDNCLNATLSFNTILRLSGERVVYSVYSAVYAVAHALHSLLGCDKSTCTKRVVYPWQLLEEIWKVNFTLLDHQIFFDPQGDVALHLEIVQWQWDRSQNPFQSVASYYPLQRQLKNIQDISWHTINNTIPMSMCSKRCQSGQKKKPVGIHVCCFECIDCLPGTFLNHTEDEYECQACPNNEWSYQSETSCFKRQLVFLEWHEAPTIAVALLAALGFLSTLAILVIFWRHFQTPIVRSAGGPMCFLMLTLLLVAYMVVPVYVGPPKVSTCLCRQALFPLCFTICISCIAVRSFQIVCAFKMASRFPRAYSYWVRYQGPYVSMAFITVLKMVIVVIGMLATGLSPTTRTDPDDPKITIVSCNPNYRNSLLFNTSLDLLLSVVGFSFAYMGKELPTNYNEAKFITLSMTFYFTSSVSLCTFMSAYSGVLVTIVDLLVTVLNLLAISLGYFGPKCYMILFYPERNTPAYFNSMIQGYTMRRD
T1 sequence (Q7RTX0 21-852 R813K): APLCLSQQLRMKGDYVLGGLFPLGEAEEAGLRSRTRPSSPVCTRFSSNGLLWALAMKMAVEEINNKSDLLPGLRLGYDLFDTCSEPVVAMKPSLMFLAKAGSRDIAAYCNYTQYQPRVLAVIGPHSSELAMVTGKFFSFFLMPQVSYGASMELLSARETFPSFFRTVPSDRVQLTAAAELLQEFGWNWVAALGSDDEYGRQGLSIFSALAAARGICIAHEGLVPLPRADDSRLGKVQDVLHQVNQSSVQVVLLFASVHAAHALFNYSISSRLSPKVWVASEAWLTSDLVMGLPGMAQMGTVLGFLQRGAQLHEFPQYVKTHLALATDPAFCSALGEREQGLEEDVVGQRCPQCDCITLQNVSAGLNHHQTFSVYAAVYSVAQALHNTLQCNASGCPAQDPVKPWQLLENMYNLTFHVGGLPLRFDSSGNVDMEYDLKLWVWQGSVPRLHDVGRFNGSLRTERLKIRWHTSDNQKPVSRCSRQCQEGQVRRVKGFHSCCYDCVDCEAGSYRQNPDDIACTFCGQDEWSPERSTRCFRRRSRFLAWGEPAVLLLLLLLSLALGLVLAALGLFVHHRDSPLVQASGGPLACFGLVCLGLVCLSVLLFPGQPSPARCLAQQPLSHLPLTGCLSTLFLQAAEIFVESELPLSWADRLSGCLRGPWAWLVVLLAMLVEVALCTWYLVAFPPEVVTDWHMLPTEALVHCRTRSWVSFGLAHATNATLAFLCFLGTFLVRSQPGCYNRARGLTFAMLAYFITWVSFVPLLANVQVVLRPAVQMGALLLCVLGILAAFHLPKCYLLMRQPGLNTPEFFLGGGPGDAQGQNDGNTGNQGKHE
Put plainly: Calcium mobilisation assay, TAS1R2-WT with TAS1R3 variant R813K. Format: cell-based. Particulars: for Max ΔF/F0: maximal signal amplitude. The source says:
The coding sequences for TAS1R2 and TAS1R3 were commercially synthesised, and the human codon was optimised for expression in human cells. The coding sequences of human TAS1R2 and TAS1R3 were subcloned and inserted into the mammalian expression vectors pcDNA6/myc-HisA and pcDNA4/myc-HisA (Invitrogen; Thermo Fisher Scientific; Illkirch, France) between the EcoRI and NotI restriction sites, generating the plasmids pcDNA6-TAS1R2 and pcDNA4-TAS1R3, respectively. To increase protein expression in mammalian cells, an upstream start codon was used, which was a sequence called MAX, corresponding to the QBI SP163 element also described in pcDNA4-HisMax (Invitrogen; Thermo Fisher Scientific; Illkirch, France). To measure the expression level of the receptor by immunohistochemistry, we used the FLAG sequence ([…]) in the C-terminal position, which encodes the FLAG tag epitope. SNP variants of TAS1R2 and TAS1R3 were constructed based on […], respectively, using site-directed mutagenesis (Genewiz; Leipzig, Germany).
The HEK293T cells were kindly provided by Jay P. Slack (Givaudan Flavors Corporation; Cincinnati, OH, USA). HEK293T cells stably transfected with Gα16gust44 [43, 67] were seeded in poly-D-lysine-coated clear-bottom black 96-well plates (0.35 × 10^5 cells/well) in high-glucose DMEM supplemented with 2 mM GlutaMAX, 10% dialysed foetal bovine serum with penicillin/streptomycin and G418 (400 μg/mL) at 37 °C and 6.3% CO2 in a humidified atmosphere as previously reported. […] As a negative control, HEK293T cells were mock-transfected with the empty expression vector. After a further 24 h of incubation, the HEK293T cells were washed with C1 buffer (130 mM NaCl, 5 mM KCl, 10 mM HEPES pH 7.4 and 2 mM CaCl2). The 96-well plates containing the cells were then stimulated with sweet-tasting compounds. […] Different concentration ranges were tested depending on the sweet compound injected. The Ca^2+ changes were expressed as fractional changes in fluorescent light intensity: ΔF/F = (F − F0)/F0, where F was the fluorescent light intensity at each point, and F0 was the value of emitted fluorescent light prior to stimulus application. To calculate dose–response relationships, the changes in fluorescence upon stimulus application were averaged, mock-subtracted and baseline-corrected. The dose–response data obtained were adjusted using a 4-parameter logistic equation. The half-maximal effective concentrations (EC50 values) and maximal signal amplitudes were calculated using SigmaPlot software (version 15.0) (Systat Software; San Jose, CA, USA).
For in vitro calcium mobilisation assay performed on hTAS1R2-SNPs, hTAS1R3-SNPs and mTAS1R3-I60T, 6 to 7 concentrations were tested for each sweet compound, plus buffer alone. All concentration–receptor combinations were measured in duplicate, and each experiment was repeated at least 4 times (8 wells/concentration). Results were expressed for each concentration as ΔF/F mean ± SEM and represented as dose–response curves.
For orientation: A change in cytosolic calcium serves as a functional read-out for many receptors and channels.

Read-outs that look alike come from different tables or passages of the source. No end group written: not given here.

Broadly, the EC50 is the concentration giving half of the maximal effect.

Consider `OC[C@H]1O[C@H](O[C@]2(CCl)O[C@H](CCl)[C@@H](O)[C@@H]2O)[C@H](O)[C@@H](O)[C@H]1Cl` [Sucralose], for which the “R1 = Variant EC50/WT EC50” value came out at 1.1 and the “Max ΔF/F0” value is given as 0.90 ± 0.03. The EC50 (read-out: EC50) amounted to 120 ± 9 µM.

As for `C[C@H](CC[C@@H](O[C@@H]1O[C@H](CO[C@@H]2O[C@H](CO)[C@@H](O)[C@H](O)[C@H]2O)[C@@H](O)[C@H](O)[C@H]1O[C@@H]1O[C@H](CO)[C@@H](O)[C@H](O)[C@H]1O)C(C)(C)O)[C@H]1CC[C@@]2(C)[C@@H]3CC=C4[C@@H](CC[C@H](O[C@@H]5O[C@H](CO[C@@H]6O[C@H](CO)[C@@H](O)[C@H](O)[C@H]6O)[C@@H](O)[C@H](O)[C@H]5O)C4(C)C)[C@]3(C)[C@H](O)C[C@]12C` [Mogroside V, mogroside V], the “R1 = Variant EC50/WT EC50” value turned out to be 0.7 and the “Max ΔF/F0” value was 1.14 ± 0.02. Further, the EC50 (read-out: EC50) was determined as 22 ± 1.3 µM.

In the case of `COC(=O)[C@H](Cc1ccccc1)NC(=O)[C@H](CC(=O)O)NCCC(C)(C)C` [Neotame], the “R1 = Variant EC50/WT EC50” value amounted to 0.8 and the “Max ΔF/F0” value was 0.79 ± 0.02. Besides, under “read-out: EC50”, the EC50 amounted to 0.98 ± 0.07 µM.

Consider “brazzein (QDKCKKVYENYPVSKCQLANQCNYDCKLDKHARSGECFYDEKRNLQCICDYCEY; ends and bridges not checked; cysteine pairing not given here; UniProt P56552 1-54, looked up) [sweet-tasting protein obtained by recombinant production using the yeast Pichia pastoris]”, for which the “R1 = Variant EC50/WT EC50” value amounted to 0.5 and the “Max ΔF/F0” value is recorded as 1.00 ± 0.05. For the same molecule, where the note is “brazzein”, the half-maximal effective concentration (EC50) was determined as 58.0 ± 10.5 µg/mL.

As to `C=C(C)[C@@H]1CC=C(/C=N/O)CC1` [Perillartine, perillartine], the “R1 = Variant EC50/WT EC50” value is 0.8 and the “Max ΔF/F0” value is 1.28 ± 0.16. The EC50 (read-out: EC50) was 10.4 ± 3.6 µM.

For the molecule `CC1=CC(=O)NS(=O)(=O)O1` [Acesulfame K, acesulfame K], the “R1 = Variant EC50/WT EC50” value came out at 0.7 and the “Max ΔF/F0” value was found to be 0.40 ± 0.01. Further, the EC50 (read-out: EC50) worked out at 433 ± 34 µM.

For the molecule `C=C1C[C@@]23CC[C@H]4[C@@](C)(CCC[C@@]4(C)C(=O)O[C@@H]4O[C@H](CO)[C@@H](O)[C@H](O[C@@H]5O[C@H](CO)[C@@H](O)[C@H](O)[C@H]5O)[C@H]4O[C@@H]4O[C@H](CO)[C@@H](O)[C@H](O)[C@H]4O)[C@@H]2CC[C@]1(O[C@@H]1O[C@H](CO)[C@@H](O)[C@H](O[C@@H]2O[C@H](CO)[C@@H](O)[C@H](O)[C@H]2O)[C@H]1O[C@@H]1O[C@H](CO)[C@@H](O)[C@H](O)[C@H]1O)C3` [Rebaudioside M, rebaudioside M], the “R1 = Variant EC50/WT EC50” value was determined as 0.7 and the “Max ΔF/F0” value was found to be 1.18 ± 0.06. In addition, under “read-out: EC50”, the EC50 was determined as 27.4 ± 3.4 µM.

For the molecule `O=S(=O)(O)NC1CCCCC1` [Cyclamate, cyclamate], the EC50 (read-out: EC50) came out at 1330 ± 22 µM.

For `COc1ccc(CCC(=O)c2c(O)cc(O[C@@H]3O[C@H](CO)[C@@H](O)[C@H](O)[C@H]3O[C@@H]3O[C@@H](C)[C@H](O)[C@@H](O)[C@H]3O)cc2O)cc1O` [NHDC, neohesperidin dihydrochalcone], the “R1 = Variant EC50/WT EC50” value stood at 0.7 and the “Max ΔF/F0” value came to 1.00 ± 0.02. Besides, the EC50 (read-out: EC50) worked out at 34.2 ± 15.2 µM.

For the molecule thaumatin, the “R1 = Variant EC50/WT EC50” value is reported as 0.6 and the “Max ΔF/F0” value came out at 0.74 ± 0.04.

B1: thaumatin (protein)
chain: ATFEIVNRCSYTVWAAASKGDAALDAGGRQLNSGESWTINVEPGTKGGKIWARTDCYFDDSGSGICKTGDCGGLLRCKRFGRPPTTLAEFSLNQYGKDYIDISNIKGFNVPMDFSPTTRGCRGVRCAADIVGQCPAKLKAPGGGCNDACTVFQTSEYCCTTGKCGPTEYSRFFKRLCPDAFSYVLDKPTTVTCPGSSNYRVTFCPTA
modifications: Eight disulfides
notes: sweet-tasting plant protein, E957
As for B1, the EC50 (read-out: EC50) came to 6.5 ± 0.9 µM.
